Measured values as given in a melting point compilation (Tetko et al.; mined from patent text by program, amines drawn as free bases though some values may be those of a salt).

Compound | melting point [°C]
CCc1ncnc(NC2CCC3(CC2)OCC(CO)O3)c1Cl (stereo unspecified) | 97 to 98
CSc1nnsc1-c1cccs1 | 49 to 49.5
CCN1CCC(c2ccccc2)=C(C(=O)NC)C1 | 103 to 105
CC(=O)OCC(=O)C1=CCC2C3CCC4=CC(=O)CCC4(C)C3=CCC12C (stereo unspecified) | 128 to 129
Cc1cc2c(cc1N)OC(=O)C2C (stereo unspecified) | 123 to 124
COc1ccc(Cn2cnc3c(-c4ccco4)nc(OCc4ccccc4)nc32)cc1 | 122
CCOC(=O)c1nn(-c2cccc(Br)c2)c(=O)c2c(N)scc12 | 163 to 165
CC(=O)CC(C)c1ccc(-c2ccccc2F)cc1 (stereo unspecified) | 60 to 61
COC(=O)c1ccc(CN2CCN(CC(C)O)CC2)cc1 (stereo unspecified) | 63 to 64
CCOC(=O)C1CSCCN1C(=O)Nc1ccc(Cl)cc1F (stereo unspecified) | 112
CCOC(=O)c1ccc(-c2nc(COc3ccc(COc4nn(-c5ccccc5)cc4/C=C/P(=O)(OCC)OCC)cc3OC)c(C)o2)s1 | 114 to 115
COC(=O)C1=C(C)NC(C)=C(C(=O)c2ccco2)C1c1ccccc1[N+](=O)[O-] (stereo unspecified) | 90 to 92
Cc1[nH]c(=O)[nH]c(=O)c1N1CCN(Cc2ccccc2)CC1 | 263
CC(=O)OC1CSC(Oc2cccnc2-c2cccs2)C(OC(C)=O)C1OC(C)=O (stereo unspecified) | 166
CN(C)C=Nc1ncc(S(=O)(=O)NC(C)(C)C)c(O)n1 | 258 to 261
Clc1ccc(C2C3=C(CCS3)NC3=C2SCC3)cc1Cl | > 260
CCOC(=O)c1cc(OC2COCCC2=O)[nH]n1 (stereo unspecified) | 121 to 123
Cn1cc(C(=O)NCc2ccc(Cl)cc2)c(=O)c2ccoc21 | 197 to 205
O=C(Nc1cccc2ncccc12)C(Cl)(Cl)Cl | 145 to 147
O=C1c2ccccc2S(=O)(=O)N1CBr | 155 to 157
CC(=Cc1ccc(S)cc1)c1ccc2c(c1)C(C)(C)CCC2(C)C | 97 to 98
CCCS(=O)(=O)Cc1ccc(C(=O)Nc2ccc3cc(CN4CCCC4)cnc3c2C)cc1 | 191
CC(C)C(=O)N1CCC(NC(=O)c2ccccc2Oc2ccc(Cl)cc2Cl)CC1 | 51 to 54
COC(=O)c1cc2ccncc2c2sc3ccccc3c12 | 174 to 176
CC(C)Oc1cc(-n2c(=O)cc(C(F)(F)F)[nH]c2=O)c(F)cc1Cl | 195 to 197
C[C@@H]1C[C@@H]([C@H](CC2CCCCC2)NC(=O)OC(C)(C)C)OC1=O | 80 to 82

Compound | melting point [°C]
COc1ccc(-c2sc3c(c2C)c(=O)c(COC(C)=O)cn3Cc2ccccc2OC)cc1 | 158 to 159
CCOC(=O)c1c(C2CCN(C)CC2)[nH]c(-c2ccc(F)c(F)c2)c1-c1ccncc1 | 262 to 265
CCOC(=O)c1[nH]cc2c1NC1=C(C(=O)CCC1)C2c1ccc(Sc2nc3cc(Cl)c(Cl)cc3[nH]2)o1 (stereo unspecified) | 180
CN(c1ccc(CC(=O)O)cc1)c1cc(C(C)(C)C)c(O)c(C(C)(C)C)c1 | 181 to 182
O=C1Nc2ccc(S(=O)(=O)N3CCC[C@H]3CN3CCOCC3)cc2C1=O | 163 to 164
CC(C)c1nc(C(C)C)c(C(O)c2ccccc2)c(-c2ccc(F)cc2)c1CO (stereo unspecified) | 202 to 204
CCn1ccc2nc(N3CCN(c4ncc5cc(OC)c(OC)cc5n4)CC3)ncc2c1=O | 259 to 262
COC(=O)C(C)Oc1ccc(OCc2ccccc2)cc1 (stereo unspecified) | 63 to 65
CCN(CC)c1ccc2cc(C(=O)OCCCCCCO)c(=O)oc2c1 | 85 to 86
O=C(O)Cc1c(F)c(F)nc(F)c1Cl | 127 to 129
CCNC(=O)NCC(CO)c1cccc2ccc(OC)cc12 (stereo unspecified) | 120 to 122
CN(CCC1=C(C#N)C(c2cccc3nonc23)c2c[nH]nc2N1)C(=O)OC(C)(C)C (stereo unspecified) | 240
COC(=O)c1c(O)c(Br)c(Br)n1C | 128 to 130
CC(CNC(=O)CN1CCCC1=O)N1CCN(C)CC1 (stereo unspecified) | 84 to 85
O=C(NC1=Nc2cc(OCCn3cccc3)ccc2C2=NCCN12)c1cccnc1 | 209
Cn1c(Nc2cc(C(F)(F)F)ccc2Cl)nc(C(F)(F)F)cc1=O | 158 to 159
COc1ccc(Cl)cc1NC(=O)NCc1ccc2c(c1)CN(C1CCC(=O)NC1=O)C2=O (stereo unspecified) | 283 to 285
Nc1ccc(C23CC2C(=O)N(Cc2ccccc2)C3=O)cc1 (stereo unspecified) | 147 to 149
O=c1[nH]c2cc(Br)c3c(c2[nH]c1=O)CN(Cc1ccccc1)CC3 | 297 to 302
CCCc1c(OCCCCCNC(=O)NCCCCc2cccnc2)ccc(C(C)=O)c1O | 73 to 76
CCOC(=O)CCc1c(O)ccc2ccc(OCC(=O)OCC)cc12 | 112 to 113
COC(c1cccs1)C1C(c2ccccc2)CC(=O)N1C (stereo unspecified) | 101 to 102
CC12CCC(C1)C1(C)Oc3ccc(C(=O)/C=C/c4cc(C(=O)O)cs4)cc3C21C (stereo unspecified) | 226 to 228
O=S1(=O)c2cccc3cccc(c23)N1CCCN1CC=C(c2c[nH]c3ccc(Cl)cc23)CC1 | 189
CC(C)=CC(C)(S)[C@@H](NC=O)C(=O)O (stereo partly specified) | 183 to 184
COCCOc1cc(N(C)S(=O)(=O)c2cccs2)c2[nH]c(C(N)=O)cc2c1 | 214 to 215

Compound | melting point [°C]
CCOP(=O)(Cc1ccc(-c2nc3cccc(Cl)c3o2)cc1)OCC | 92 to 93
COc1cc(CN2C(=O)CN(C)C2=O)cc(OC)c1-c1ccc(C[C@H](NC(=O)c2c(Cl)cccc2Cl)C(=O)O)cc1 | 248
CCOC(=O)c1cn(CC)c2nc(N3CCN(C(=O)OCC)CC3)c(F)cc2c1=O | 171 to 173
CCCC(=O)C1=C(O)CC(c2cc(C(C)C)no2)CC1=O (stereo unspecified) | 105 to 107
COC1Nc2c(O)cccc2C(=O)N2CCCC12 (stereo unspecified) | 150 to 153
CNC1c2c(O)c(C)cc(C)c2C2CCCCC21 (stereo unspecified) | 110 to 111
CCCCCCCCCCCCCCCCOc1cc(C(=O)O)c(O)c2ccccc12 | 121 to 124
CON=C(C)c1cc(C#N)c(=O)[nH]c1C | 275 to 285
Cc1ccc2c(c1)C(=O)CCC21CCC(=O)NC1=O (stereo unspecified) | 252 to 254
Cn1nc(-n2ncc(C(N)=S)c2Br)c(Cl)c1OC(F)F | 175
COC(=O)n1nc(C(=O)NC2CN(C)CCN(Cc3ccccc3)C2)c2ccccc21 (stereo unspecified) | 158 to 160
COc1ccc(C(=O)c2cccc(OC)c2)cc1 | 53 to 55
CCCCCCN(C[C@H]1CCC[C@H](CN(CCCCCC)C(=O)Nc2ccc(N(C)C)cc2)C1)C(=O)Nc1ccc(N(C)C)cc1 (relative stereo) | 121 to 125
COc1ccc2ccc(NC(=O)C3CC3)nc2n1 | 170
CC1CC(=O)C(C(=O)CCC2CCCO2)C(=O)O1 (stereo unspecified) | 43 to 45
Cc1ccc(C(=O)NCCO)cc1-n1c(C)cc(OCc2ccccc2CNC(=O)Nc2cc(C(C)(C)C)nn2-c2cccc(OCCO)c2)c(Cl)c1=O | 162 to 163
CC=CCOc1c(I)cc(C(C)O)nc1Cl (stereo unspecified) | 61 to 62.5
O=C(O)c1ccc(C=CC(=O)c2ccc(O)cc2)cc1 | 300 to 302
O=C(C=Cc1ccc(Cl)cc1)N1CCN(c2ccc(OC[C@H]3CO[C@](Cn4cncn4)(c4ccc(Cl)cc4Cl)O3)cc2)CC1 (relative stereo) | 185
Cc1nn(-c2cc3nc(S(C)=O)sc3cc2F)c(=O)n1C (stereo unspecified) | 199 to 201
CN(CCOc1ccc(CC2SC(=O)NC2=O)cc1)c1nc2ccccc2s1 (stereo unspecified) | 167 to 168
CC(C)C(=O)CCC(C)C1CCC2C3C=CC4=CC(=O)C5OC5C4(C)C3CCC12C (stereo unspecified) | 150 to 152
Cc1nc2cnccc2n1-c1ccc(C2=Nc3ccccc3N(C)C(=O)C2)cc1 | 147
COc1ccc(C2=NN(c3csc(C)n3)C(=O)[C@H]3CCCC[C@@H]23)cc1OC (relative stereo) | 135 to 137
COc1cc(N2CCN(C[C@@H](O)CO)CC2)ccc1Nc1ncc2ccc(-c3cc(Cl)ccc3OC)n2n1 | 101 to 104
O=C1c2ccc([N+](=O)[O-])c3c([N+](=O)[O-])c(Br)cc(c23)C(=O)N1O | 233 to 234

Compound | melting point [°C]
CC1(C)Oc2ccc([N+](=O)[O-])cc2O1 | 89 to 91
COC(=O)c1sccc1-c1cc2c(cc1C)C(C)(C)CCC2(C)C | 89 to 90
COc1ccc(-c2nc(CCBr)nc3cc(OC)c(OC)cc23)cc1OC | 166 to 167
CCOC(=O)C(C)c1ccc2cc(O)ccc2c1 (stereo unspecified) | 93 to 98
CN1CCN(c2cccc3c2C[C@H](NC(=O)c2ccc(C(=O)c4ccccc4)cc2)CC3)CC1 | 194 to 195
Nc1ccc2ccc(Oc3cccc(F)c3)nc2n1 | 165
Cc1ccccc1OCC(O)CN1CCC2(CC1)CSC1=C(O2)c2ccccc2C(=O)C1=O (stereo unspecified) | 191 to 193
CC(=O)SCC(Cc1ccccc1)NC(=O)N1CCN(c2ccc(Cl)cc2)CC1 (single isomer, unassigned; (+)) | 140
COC(=O)c1nc(SC)n(-c2ccccc2)c1C(=O)OC | 121 to 122
Cc1ccc(C(=O)Nc2c[nH]nc2C(=O)NCCO)cn1 | 233 to 235
COc1cc2c(cc1OC)CN(CCCOc1ccc(N)cc1)CC2 | 100
CN1C(=O)c2ccccc2N(N=O)c2ccccc21 | 95 to 98
CC(=O)Oc1ccccc1C(=O)OCCSS(C)(=O)=O | 90 to 91
COc1cccc(C#Cc2nc(C)ccc2N)c1 | 165 to 166
Cn1ncc([N+](=O)[O-])c1CBr | 71 to 73
COc1cc(NC(=O)CCCCCN2CCN(CCO)CC2)c2nccc(C)c2c1 | 88 to 90
CCOC(=O)c1cccc(Nc2ccncc2N)c1 | 80 to 91
Cc1ccc(OC2SCC(O)C(O)C2O)cn1 (stereo unspecified) | 233
O=C(CNc1ccc(F)cc1)N1CCN2C(=O)OC(c3ccccc3)(c3ccccc3)C2C1 (stereo unspecified) | 203 to 204
CN(C)S(=O)(=O)Nc1cc(C(=O)c2ccccc2)ccc1N | 147 to 149
COc1ccc2cc(N3CCC4(CCN(C)CC4)CC3)ccc2c1 | 122 to 125
O=C(OCC1CC1)c1ncn2c1[C@@H]1CCN1C(=O)c1c(Br)cccc1-2 | 212 to 213
C=CCc1cc(-c2ccc(F)cc2)cc(C(=O)O)c1O | 170 to 172
